Measured values published in paper PMC8140528 (Chemistry & biodiversity, 2021).
Read-outs that look alike come from different tables or passages of the source.

Tests used:
[1] = tested on: human T-lymphocyte cells (CEM); test: Antiproliferative effect on CEM cells; format: cell-based; conditions: read-out: IC50 CEM
[2] = tested on: murine leukemia cells (L1210); test: Antiproliferative effect on L1210 cells; format: cell-based
[3] = tested on: human cervix carcinoma cells (HeLa); test: Antiproliferative effect on HeLa cells; format: cell-based; conditions: read-out: IC50 HeLa
[4] = tested on: CCRF-CEM (Acute Lymphoblastic leukemia); test: Differential nuclear staining; format: cell-based; conditions: Homo sapiens, CCRF-CEM, read-out: CC50 (death of 50% of the cells)
[5] = Differential nuclear staining; format: cell-based; conditions: human
[6] = Differential nuclear staining; format: cell-based; conditions: human, Hs27 non-cancerous fibroblast cells
[7] = tested on: Jurkat (Acute T Cell Leukemia); test: Differential nuclear staining; format: cell-based; conditions: Homo sapiens, Jurkat
[8] = Differential nuclear staining; format: cell-based; conditions: human; remark: listed apart in the source
[9] = tested on: L1210, CEM and HeLa cells; test: Cytotoxicity screening over L1210, CEM and HeLa; format: cell-based; conditions: read-out: IC50 (range over the cell lines tested), L1210, CEM and HeLa together
[10] = tested on: caspase-3 in Jurkat cells; test: Caspase-3 activation assay; format: cell-based, human; conditions: CC50 (2.36 μM) and CC100 (4.72 μM), 7 h, vs controls
Jurkat cells [11] = test: Annexin V-FITC/PI assay; format: cell-based, human; conditions: 7g at CC50 (2.36 μM) and CC100 (4.72 μM), vs vehicle control
Jurkat cells [12] = test: Mitochondrial depolarization assay; format: cell-based, human; conditions: JC-1, flow cytometry, 5 h
Jurkat cells [13] = test: Cell cycle analysis; format: cell-based, human
[14] = read-out: IC50 L1210, L1210 cells, mean ± SEM (n=3)
[15] = read-out: CC50 (death of 50% of the cells)
[16] = read-out: CC50 (range for compounds 7g and 8b)
[17] = Mus musculus, L1210, read-out: IC50 L1210
[18] = cells treated with the CC50, 48 h

Compound `COc1ccc(Cc2nn3cc(-c4cc5ccccc5oc4=O)nc3s2)cc1` [Compound 5h] has an IC50 ([1]; CEM cells, mean ± SEM (n=3)) of 5 ± 3.3 µM, an IC50 [2, 14] of 90 ± 24 µM and an IC50 ([3]; HeLa cells, mean ± SEM (n=3)) of 70 ± 4 µM.
`N[C@@H](Cc1ccc(N(CCCl)CCCl)cc1)C(=O)O` [Melphalan, reference compound] gave an IC50 ([1]; Homo sapiens, CCRF-CEM) of 1.4 ± 0.4 µM and an IC50 [2, 14] of 2.13 ± 0.02 µM.
With `c1ccc([C@H]2CN3CCSC3=N2)cc1` [Levamisole, reference compound] the IC50 ([1]; Homo sapiens, CCRF-CEM) was greater than 250 µM and the IC50 ([3]; Homo sapiens, HeLa) was greater than 250 µM.
Compound `COc1ccc(Cc2nn3c(C=O)c(-c4ccc(Cl)cc4)nc3s2)cc1` [Compound 8b, 6-(4-chlorophenyl)-2-(4-methoxybenzyl)imidazo[2,1-b][1,3,4]thiadiazole-5-carbaldehyde] has a CC50 [4] of 3.62 ± 0.26 µM, a selectivity ratio [5] of 0.65 and an IC50 ([1]; Homo sapiens, CCRF-CEM) of 0.94 ± 0.12 µM. It also gave a CC50 at 72 h [6] of 2.36 ± 0.03 µM, a CC50 [7, 15] of 1.65 ± 0.19 µM and a CC50 [7, 16] of 1.65 to 4.73 µM. It also gave a selectivity ratio [8] of 1.43, an IC50 [2, 17] of 1.1 ± 0.2 µM and an IC50 [9] of 0.94 to 1.3 µM. For the same compound, the IC50 ([3]; Homo sapiens, HeLa) was 1.3 ± 0.2 µM.
`COc1ccc(Cc2nn3c(SC#N)c(-c4cc5ccccc5oc4=O)nc3s2)cc1` [Compound 7g, 2-(4-methoxybenzyl)-6-(2-oxo-2H-chromen-3-yl)imidazo[2,1-b][1,3,4]thiadiazol-5-yl thiocyanate] showed a CC50 [4] of 4.73 ± 0.22 µM, a selectivity ratio [5] of 6.65 and an IC50 ([1]; Homo sapiens, CCRF-CEM) of 0.79 ± 0.35 µM. For the same compound, the CC50 at 72 h [6] was 31.4 ± 0.74 µM, the caspase-3 activation [10] was “induced statistically significant activation of caspase-3” and the CC50 [7, 15] was 2.36 ± 0.1 µM. It also gave a CC50 [7, 16] of 1.65 to 4.73 µM, a selectivity ratio [8] of 13.3 and an IC50 [2, 17] of 1.6 ± 0.2 µM. For the same compound, the IC50 [9] was 0.78 to 1.6 µM, the phosphatidylserine externalization (Jurkat cells [11]) was “inducing phosphatidylserine externalization in a dose-response manner” and the IC50 ([3]; Homo sapiens, HeLa) was 0.78 ± 0.13 µM. For the same compound, the mitochondrial membrane depolarization (Jurkat cells [12]) was “not causing mitochondrial membrane depolarization”, the “sub-G0/G1 subpopulation (DNA fragmentation)” value (Jurkat cells [13]; 7g at CC50 (2.36 μM) and CC100 (4.72 μM), 48 h) was “increase in sub-G0/G1 subpopulation” and the “cell population in G2-M phase” value (Jurkat cells [13]; 48 h) was “increase of the cell population in the G2-M phase”. For the same compound, the “cell population in S phase” value (Jurkat cells [13]; [18]) was “increase of cell population in the S phase” and the “cell subpopulation in G0-G1 phase” value (Jurkat cells [13]; [18]) was “decrease of cell subpopulation in the G0-G1 phase”.
